Literature values, collected in US11033578B2, “Nutritional supplement for growth enhancement” (Nutritional Growth Solutions LTD, priority 2013, dated 2021).

What was measured:
children = conditions: meta analysis; 95% CI: 0.46, 2.51
[1] = tested on: initially stunted infants; conditions: daily syrup for six months; vs placebo

Molecule | increase in hemoglobin concentrations, effect size (children) | mean height for age Z-score [1]
[Fe] [iron] | 1.49 | –
zinc [zinc-alone] | – | decreased to a greater extent than placebo
